Measured values as given in patent US20080193379A1, “Radioactive Diagnostic Imaging Agent” (Nihon Medi-Physics Co., Ltd., priority 2005, published 2008).

How the values were obtained:
[1] = as injection additive; cited from earlier work
[2] = Radiolysis stability of 18F-FDG solutions with mannitol: radiochemical purity by TLC (Examples 13-18, Comparative Example 2); format: physicochemical; details: added at 2.5 mmol/L or higher concentrations
Description: The same procedure as in Comparative Example 1 and Examples 1 through 12 was repeated to obtain a ^18F-FDG stock solution (radioactivity=126.3 GBq). To the ^18F-FDG stock solution, physiological saline was added for dilution so that the resulting solution had 92.5 MBq/mL 4.5 hours after preparation. This gave a ^18F-FDG solution.
To 2 mL of the above-obtained ^18F-FDG solution, the mannitol solutions having different concentrations shown in Table 3 were each added in amounts shown in Table 3, and mixed at room temperature to prepare respective sample solutions.
The above-obtained samples were subjected to TLC analysis on the below conditions immediately after the preparation of ^18F-FDG solution (Comparative Example 2 only), and 4.5 and 8.5 hours after the preparation. Radiochemical purity was obtained based on the area percentage of the ^18F-FDG peak. The radiochemical purity at each time point was compared to one another to evaluate stability of the samples.
TLC plate=Silica Gel 60 F254 (under trade name, manufactured by Merck & Co., Inc.)
Developing solvent=acetonitrile/water=19:1
Detector=Radiochromanizer (JTC-R75-21361, manufactured by Aloka)

glucose transporters = details: reported by Heli Teerijoki et al. and A. N. Ouraishi et al.; cited from earlier work
[3] = aqueous solution; reported by Sara Goldstein et al.; cited from earlier work

SMILES	Maximum dose for intravenous injection [1] [mg]	Prevention of the decrease in radiochemical purity of 18F-FDG caused by radiolysis [2]	Substrate for glucose transporters (glucose transporters)	Scavenger of OH radicals [3]
O=C(CO)[C@@H](O)[C@H](O)[C@H](O)CO [fructose]	900			
OC[C@H]1O[C@@H](O[C@H]2[C@H](O)[C@@H](O)C(O)O[C@@H]2CO)[C@H](O)[C@@H](O)[C@H]1O (stereo partly drawn) [lactose]	1250			
OC[C@H]1O[C@H](O[C@H]2[C@H](O)[C@@H](O)[C@H](O)O[C@@H]2CO)[C@H](O)[C@@H](O)[C@@H]1O [maltose]	10000			
OC[C@@H](O)[C@@H](O)[C@H](O)[C@H](O)CO [mannitol]	1200	can significantly prevent the decrease in the radiochemical purity	does not serve as a substrate for glucose transporters	acts as a scavenger of OH radials
OC[C@@H](O)[C@@H](O)[C@H](O)[C@@H](O)CO [sorbitol]	1500			
OC[C@@H](O)[C@H](O)[C@@H](O)CO [xylitol]	200			
